According to patent US7183283B2, “Piperidinyl-alkylamino-pyridazinone derivatives, a process for the preparation thereof and pharmaceutical compositions containing said compounds” (Egis Gyogyszergyar RT., priority 2002, dated 2007):

Tests used:
rats = experiment: Elevated plus-maze (anxiolytic effect); type: in vivo, rat; settings: male Sprague-Dawley rats, po, tested 60 min after treatment, 5 min test time
From the text: Tests have been performed as described by Pellow and co-workers [J. Neurosci. Methods, 14, 149 (1985)]. A wooden cross, 15 cm wide with 100 cm long arms was used for the experiments. The sides and ends of two opposite arms of the cross were equipped with 40 cm high walls, however, the arms were open to the 15×15 cm central area (closed arms). The two other opposite arms were not encircled by walls (open arms).
Male Sprague-Dawley rats weighing 200–220 g were used for the experiments. The animals were placed in the central area of the equipment 60 min after treatment and the following four parameters have been observed for the 5 min test time: • time spent in the open arms, • time spent in the closed arms, • number of entries into the open arms, • number of entries into the closed arms.
The effect was expressed as percent increase in either the time (measured in sec) spent in the open arms or number of entries into the open arms. MEDs (minimal effective dose) were determined for each compound regarding the time spent in the open arms. Results are summarized in Table I. Buspiron [8-[4-[4-(2-pyrimidinyl)-1-piperazinyl]-butyl]-8-azaspiro[4,5]decan-7,9-dion] was used as reference compound.

mice = experiment: Inhibition of spontaneous motor activity (sedative effect); type: in vivo
Description: The effect on spontaneous motor activity was investigated according to Borsy and co-workers [Borsy, J. et al, Arch. Int. Pharmacodyn., 124, 180–190 (1960)] in a ten channel Dews instrument, with 1—1 animal in each channel. Animals were placed into the instrument 60 min after per os treatment with either vehicle or test compound, and interruptions of infrared beams were recorded for 30 min. […] Diazepam [7-chloro-1,3-dihydro-1-methyl-5-phenyl-2H-1,4-benzodiazepine-2-one] was used as reference compound.

[1] = mice, per os, placed in Dews instrument 60 min after treatment, recorded for 30 min

Row | SMILES | MED (minimal effective dose) regarding the time spent in the open arms (rats) | ID50 (50 percent inhibitory dose), spontaneous motor activity (mice; [1]) [mg/kg po] | ID50 (50 percent inhibitory dose), spontaneous motor activity (mice; mouse, in vivo, 60 min) [mg/kg po] | melting point [°C]
1 | Cl.Cl.O=C(c1ccc(F)cc1O)C1CCN(CCNc2cn[nH]c(=O)c2)CC1 [Example 2, 5-{2-[4-[1-(4-fluoro-2-hydroxy-phenyl)-methanoyl]-piperidine-1-yl]-ethylamino}-2H-piridazine-3-one-dihydrochloride] | ≦0.3 mg/kg po | >100 | – | –
2 | CC(CNc1cnn(C)c(=O)c1)N1CCC(C(=O)c2ccc(F)cc2O)CC1 (stereo not shown) [Example 3, 5-{2-[4-[1-(4-fluoro-2-hydroxy-phenyl)-methanoyl]-piperidine-1-yl]-propylamino}-2-methyl-2H-pyridazine-3-one] | ≦0.3 mg/kg po | – | >100 | 199 to 201
3 | Cn1ncc(NCCN2CCC(C(=O)c3ccc(F)cc3O)CC2)cc1=O [Example 1, 5-{2-[4-[1-(4-fluoro-2-hydroxy-phenyl)-methanoyl]-piperidine-1-yl]-ethylamino}-2-methyl-2H-pyridazine-3-one] | ≦0.03 mg/kg po | – | >100 | 200 to 202
4 | O=C1CC2(CCCC2)CC(=O)N1CCCCN1CCN(c2ncccn2)CC1 [Buspiron, 8-[4-[4-(2-pyrimidinyl)-1-piperazinyl]-butyl]-8-azaspiro[4,5]decan-7,9-dion, reference compound] | 3.0 mg/kg po | – | – | –
5 | CN1C(=O)CN=C(c2ccccc2)c2cc(Cl)ccc21 [Diazepam, 7-chloro-1,3-dihydro-1-methyl-5-phenyl-2H-1,4-benzodiazepine-2-one, reference compound] | – | 7.0 | – | –
